Experimental data reported in patent publication US20070105847A1, “1,3-Dioxane derivatives and analogues thereof useful in the treatment of i.a. obesity and diabetes” (priority 2004, published 2007).

Key:
Swiss albino mice = experiment: Serum triglyceride and total cholesterol lowering activity in Swiss albino mice; assay type: in vivo; conditions: male Swiss albino mice, oral, 10 mg/kg/day for 6 days, 1 hour after dosing on 6th day
Description: • i) Serum triglyceride and total cholesterol lowering activity in Swiss albino mice:
Male Swiss albino mice (SAM) were bred in Zydus animal house. All these animals were maintained under 12 hour light and dark cycle at 25±1° C. Animals were given standard laboratory chow (NIN, Hyderabad, India) and water ad libitum. SAM of 20-30 g body weight range was used. The protocol approved by Institutional Animal Ethics Committee is being used.
The test compounds were administered orally to Swiss albino mice at 0.001 to 50 mg/kg/day dose for 6 days. The compound was administered after suspending it in 0.25% CMC or dissolving it in water, when compound is water-soluble. Control mice were treated with vehicle (0.25% of Carboxymethylcellulose; dose 10 ml/kg).
The blood samples were collected on 0th day and in fed state 1 hour after drug administration on 6th day of the treatment. The blood was collected in non heparinised capillary and the serum was analyzed for triglyceride and total cholesterol (Wieland, O. Methods of Enzymatic analysis. Bergermeyer, H., O., Ed., 1963. 211-214; Trinder, P. Ann. Clin. Biochem. 1969. 6: 24-27). Measurement of serum triglyceride and total cholesterol was done using commercial kits (Zydus-Cadila, Pathline, Ahmedabad, India).
Percentage reduction in triglycerides/total cholesterol were calculated according to the formula: [formula]
OC=Zero day control group value OT=Zero day treated group value TC=Test day control group TT=Test day treated group

[1] = tested on: Hamster of Syrian golden stain; experiment: Serum triglyceride and total cholesterol lowering activity in Hamster of Syrian golden strain on HF-HC diet; assay type: in vivo; conditions: hamsters on HF-HC diet, po, 3 mg/kg/day for 15 days
Description: ii) Surem triglyceride and total cholesterol lowering activity in Hamster of Syrian golden stain:
Male and Female Hamster of Syrian golden stain were bred in Zydus animal house. All these animals were maintained under 12-hour light and dark cycle at 22±3 degree C. The protocol approved by Institutional Animal Ethics Committee is being used. Two groups of animals were put on HF-HC (High fat and high cholesterol) diet for 14 days. On day 14 […] one group of animals of were put on normal diet for two weeks.
One group of animals on HF-HC diet were treated (po) with compounds of the present invention, at 0.001 to 50 mg/kg daily for 15 days while the other group received the vehicle. After 15 days blood samples. were be collected in non heparinized capillary from animals for determination of total cholesterol (TC), triglyceride (TG) (Wieland, O. Methods of Enzymatic analysis. Bergermeyer, H., O., Ed., 1963. 211-214; Trinder, P. Ann. Clin. Biochem. 1969. 6: 24-27). Measurement of serum triglyceride and total cholesterol was done using commercial kits (Pointe Scientific. Inc. USA.)
Percentage reduction in triglycerides/total cholesterol were calculated according to the formula:
• Percentage reduction (%)=(TT−TC)/TC*100
TC=Test day control group TT=Test day treated group.

## CC1(C(=O)O)OCC(CCCCOc2ccc(Cc3ccccc3)cc2)CO1 (stereo not shown) [Example 38, 5-[4-(4-Benzyl-phenoxy)-butyl]-2-methyl-[1,3]dioxane-2-carboxylic acid]
Swiss albino mice
  % Triglyceride lowering: 32%

## CC1(C(=O)O)OCC(CCCCc2ccc(OCc3ccccc3)cc2)CO1 (stereo not shown) [Example 49, 5-[4-(4-Benzyloxy-phenyl)-butyl]-2-methyl-[1,3]dioxane-2-carboxylic acid]
Swiss albino mice
  % Triglyceride lowering: 26%

## CC1(C(=O)O)OCC(CCCCc2ccc(OS(C)(=O)=O)cc2)CO1 (stereo not shown) [Example 50, 5-[4-(4-Methanesulfonyloxy-phenyl)-butyl]-2-methyl-[1,3]dioxane-2-carboxylic acid]
Swiss albino mice
  % Triglyceride lowering: 32%
[1]
  % Triglyceride lowering: 45%
